Source: patent US9783833B2, “Biocatalytic methods to convert cyclohexane oxidation process waste streams to useful products” (INVISTA NORTH AMERICA S.A. R.L., priority 2011, dated 2017)

What was measured:
[1] = test system: wild-type Yarrowia lipolytica; assay: Chemo-stat fermentation with cell retention using NVR as carbon and energy source; conditions: for Flux: steady state, 2% (v/v) NVR, ~215 mL/h, biomass dilution rate ~0.025 h^-1
Source text: The experimental set-up provided for a NVR Feed, Nutrient Feed and Base Feed (12% (v/v) NH3 (aq.)) that was filter sterilized into the fermenter via peristaltic pumps. Furthermore, a peristaltic pump provided the necessary cross-flow retentate flow rate to the hollow fibre membrane, a peristaltic pump allowed withdrawal of permeate and a peristaltic pump allowed for a biomass bleed from the fermenter.
The chemo-stat's control philosophy entailed manual feed ratio control of the NVR Feed to Nutrient Feed rates, pH control via the Base Feed, temperature control via cooling water supply to the fermenter's jacket, fixed aeration & agitation rates via the respective feedback loops, fixed cross-flow rate via the retentate pump's variable speed drive, manual level control via the permeate pump and manual dilution rate control via the bleed pump.
The initial charge minimal media was prepared (6.7 g/L yeast base without amino acids+(NH4)2SO4, 15 g/L glucose, 75 mg/L citric acid (Mr.=210 g/mol), 5.8 g/L sodium citrate (Mr.=294.1 g/mol), 10.7 g/L K2HPO4 (Mr.=174 g/mol), 5.2 g/L KH2PO4 (M=136.1 g/mol), and 2 mL/L antifoam) and the Nutrient Feed was prepared (6.7 g/L yeast base without amino acids+(NH4)2SO4, 75 mg/L citric acid (Mr.=210 g/mol), 5.8 g/L sodium citrate (Mr.=294.1 g/mol), 10.7 g/L K2HPO4 (Mr.=174 g/mol), 5.2 g/L KH2PO4 (M=136.1 g/mol), and 2 mL/L antifoam). The control parameters for the fermenter were set up (A1 and A2: 1 vvm aeration, pH 7.0, DO calibration at pH 7.0 and 1 vvm to 100% saturation, 28° C., 750 rpm initial agitation until glucose depletion, 1250 rpm final agitation after glucose depletion, manual antifoam).
The fermenter was inoculated with a 10% (v/v) inoculum from a wild-type Yarrowia lipolytica shake flask that was grown overnight from a cryopreserved stock.

[2] = test system: Y. lipolytica strains; assay: Growth of yeasts in the presence of lactones; format: cell-based, Yarrowia lipolytica; conditions: 0.1 to 1 g/L lactone; strains adapted to 3% NVR, especially Iss#137
Source text: FIG. 18 contains three line graphs showing the growth of selected yeasts in the presence of 0.1-1 g/L lactones (γ-butyrolactone, ε-caprolactone, and δ-valerolactone). Iss#125 is a S. cerevisiae control strain. Iss#134 is a Y. lipolytica strain isolated from plates after slow growth on 3% (v/v) NVR+YPD media. Iss#137 is a Y. lipolytica strain isolated from chemo-stat using synthetic NVR component feed.
A cell retention chemo-stat was required to avoid cell wash-out. […] HPLC analysis confirmed that NVR contains a high concentration (ca. 92 g/L) of valerolactone.

[3] = Hydrolysis of oligomers by cutinases (drop plates); format: biochemical; conditions: expressed in E. coli or Y. lipolytica; 12 hours at 28° C.
Source text: Cutinases from F. solani and A. oryzae were expressed in E. coli BL21 Star with His6 tags using the pET151/D-TOPO vector and the TOPO cloning system (Invitrogen) and purified on His-trap columns. The enzymes were also expressed as secreted extracellular proteins in a Y. lipolytica host strain deficient in the extracellular lipases LIP2, LIP7 & LIP8 (See, Example 7) and the supernatants concentrated 10 fold. Activity was confirmed using p-nitrophenyl butyrate as substrate, commercial lipase as a positive control and the concentrated soluble extract from E. coli transformed with the empty vector as negative control. […] (See, FIG. 26). This is further illustrated by the increase in monomeric acids, especially in the C-6 monomer components (hydroxycaproic acid, adipic acid, caproic acid) and valeric acid, released from the oligomers when cutinases (10 μl supernatant) were incubated with 4% NVR or 4% COP acid (v/v) (1 ml) overnight (See, FIGS. 27A and B).

[4] = Lactone hydrolases incubated with NVR (LC/MS); format: biochemical; conditions: 4% v/v NVR, pH 7.0, 60 minutes
Source text: (§1) The lactone hydrolase from Acinobacter was expressed (See, FIG. 3) as a secreted protein in Y. lipolytica with all major extracellular lipases deleted (strain JMY1212, Δlip-2,7,8,11). The secreted hydrolase was concentrated 10 fold by centrifugal filtration of the supernatant (Amicon® Ultra Ultracel® 10K). This enzyme, as well as the lactone hydrolyzing enzymes from Brevibacterium epidermidis and Euglena gracilis were also expressed in E. coli BL21 Star™ (DE3) cells as His tagged proteins using the pET151 inducible expression vector, and the enzymes were purified using HisTrap™ FF columns (GE Healthcare), and concentrated as before by centrifugal filtration to 1 ml after elution from the columns. Activity assays were performed in phosphate buffer (50 mM, pH 7.0) and ZnCl2 (75 mM) containing the substrate (valerolactone, caprolactone, NVR, or COP acid) (4% v/v). Reactions were started by adding 50 μl concentrated enzyme and incubated with shaking for 60 minutes. Reactions were terminated by the addition of 500 μl acetonitrile and analyzed by LC/MS. The buffer control contained 5% glycerol in place of enzyme. To assess hydrolysis of oligomers in COP acid, 10 μl enzyme was added to agar plates (1.5% (w/v)) containing 4% (v/v) COP acid. All experiments were performed in triplicate. […]

[5] = Lactone hydrolase activity assay (LC/MS); format: biochemical; conditions: 4% v/v substrate, pH 7.0, 60 minutes
Source text: as §1

[6] = Agar plate clearance zone assay on COP acid; format: biochemical; conditions: lipases; 4% (v/v) COP acid, pH = 7; 1 U/well, 24 hours
Source text: (§2) Screening methods for hydrolysis of oligomeric esters in NVR and COP acid with commercially available lipases and esterases were verified using commercially available caprolactonediol (CPL) polymers with a range of molecular weights. Two screening methods were used to identify candidate enzymes, including an agar plate assay where radial enzyme diffusion produces clearance zones if the oligomer in the agar is hydrolyzed, and a biotransformation assay in which the hydrolysis of the polymer to monomers was assayed by HPLC with UV detection or LC-MS to quantify the concentrations of monomers. […]
(§3) For plate assays, agar plates (1.5% agarose) containing 1-4% polycaprolactone (PCL), NVR or COP acid (v/v) were prepared with 50 mM citrate, Tris/HCl, or phosphate buffers to assay enzymes for hydrolytic activity at pH 3.5, 5, 7, or 8. […] Clearance zones were measured after 24 hours. […] FIG. 5 is a bar graph comparing the relative activity of esterases at different pHs as measured by the diameter of the clearance zone in the plate assay.

[7] = Plate assays, results summarised in words; format: biochemical; conditions: synthetic PCL diol, NVR and/or COP acid oligomers as named in the sentence; pH 5-8
Method: For plate assays, agar plates (1.5% agarose) containing 1-4% polycaprolactone (PCL), NVR or COP acid (v/v) were prepared with 50 mM citrate, Tris/HCl, or phosphate buffers to assay enzymes for hydrolytic activity at pH 3.5, 5, 7, or 8. The molecular weight of PCL is 530 g/mol. Wells with a ca. 3 mm diameter were made in the plates, and enzyme added (1 U/well). Clearance zones were measured after 24 hours. Tables 3 and 4 show the results of the agar plate assay with commercial esterases and lipases, respectively, for hydrolysis of oligomers in NVR, COP acid and caprolactone polymers. […] FIG. 5 is a bar graph comparing the relative activity of esterases at different pHs as measured by the diameter of the clearance zone in the plate assay.
See, Table 3, 4 and FIG. 4.

[8] = Agar plate clearance zone assay on NVR; format: biochemical; conditions: lipases; 1% (v/v) NVR, pH = 7; 1 U/well, 24 hours
Source text: as §2, §3

Molecule: O=C1CCCO1 [γ-butyrolactone]
- Flux [1]: 0 % of valerate uptake

Molecule: O=C(O)CCCCCO [6-hydroxycaproic acid]
- Flux [1]: 18 % of valerate uptake

Molecule: O=C(O)CCCCC(=O)O [adipic acid]
- steady state flux of catabolism relative to the catabolism of valeric acid ([1]; not told): 18%

Molecule: CCCCCC(=O)O [caproic acid]
- steady state flux of catabolism relative to the catabolism of valeric acid ([1]; Table 6): 42%
- Flux [1]: 42 % of valerate uptake

Molecule: O=C1CCCCO1 [δ-valerolactone]
- effect of lactone on growth of Y. lipolytica strains [2]: inhibitory

Molecule: CCCC(=O)O [butyric acid]
- steady state flux of catabolism relative to the catabolism of valeric acid ([1]; Table 6): 7%
- Flux [1]: 7 % of valerate uptake

Molecule: AoC: Aspergillus oryzae cutinase (EMBL D38311.1, UniProt P52956)
- hydrolysis of oligomers in NVR and COP acid (clearance zones) [3]: able to hydrolyze oligomers in NVR and COP acid

Molecule: O=C(O)CCCC(=O)O [glutaric acid]
- Flux [1]: 12 % of valerate uptake

Molecule: O=C(O)CCCCO [5-hydroxyvaleric acid]
- Flux [1]: 32 % of valerate uptake

B1: ChnC from Acinobacter: Lactone hydrolase, GenBank AAG10029.1, SEQ ID NO:1 (protein)
chain: MNSTQSNTQFLFDLYANWSRRMQENPNMTIEDFRSMFDEWHQPTLEPEEVSYKFDVVAGVEGLWIYPKDADLSKVIIYTHGGGFAVGSSASHRKLVGHLAKYLGVSAFVVDYRRSPEHVFPAQIQDVTAVYKELLQRGFTAKNMLTAGDSAGGNLAISTVLNLRNEGIELPGAVIAFSPWLDMEHKGETLISNDATDALITVDLLKGMSQMFLGEHGDPANPLANPLKANYQVFPRLYINAGSVESLVDNATRLADIAKKEGVDVTLSVVDNMQHVFPFLAGRASEADQELAKIAQWFKA
modifications: Acinetobacter sp. SE19
- hydrolysis of valerolactone in NVR [4]: hydrolyzed valerolactone
- lactone hydrolyzing activity [5]: highest activity

B2: L7: Commercial lipase from Rhizomucor miehei (protein, UniProt P19515 95-363, looked up)
Lipase: SIDGGIRAATSQEINELTYYTTLSANSYCRTVIPGATWDCIHCDATEDLKIIKTWSTLIYDTNAMVARGDSEKTIYIVFRGSSSIRNWIADLTFVPVSYPPVSGTKVHKGFLDSYGEVQNELVATVLDQFKQYPSYKVAVTGHSLGGATALLCALDLYQREEGLSSSNLFLYTQGQPRVGDPAFANYVVSTGIPYRRTVNERDIVPHLPPAAFGFLHAGEEYWITDNSPETVQVCTSDLETSDCSNSIVPFTSVLDHLSYFGINTGLCT
- Substrate Clearance Zone Diameter [6]: 2.2
- hydrolytic activity in plate assays (in words) [7]: large clearance zones
- Substrate Clearance Zone Diameter [8]: 1.7

B3: ChnC from Brevibacterium: Lactonohydrolase, GenBank AAK73167.2, SEQ ID NO:2 (protein, listed as Brevibacterium epidermidis)
chain: MPTSPPTVSATPMTWSSRRTGRPTSASSASTSWAGPITSSPMSSRQHRRHLGVVASGLSFPNGMVITPDGKTLIVNELFGNKITAFDIGADGKLANKRDFANFGEIGDEPDVAKRIEAATIVPDGLALDAEGAVWIANTVNQNATRIAEGGQILDTVDTAPEGIFAVALGGDDGKTLFLCAAPDWDEGARSKAREGRMLATTVAVPHAGRP
- hydrolysis of valerolactone in NVR [4]: hydrolyzed valerolactone
